Experimental data reported in US9937165B2, “Pharmacological chaperones for treating obesity” (Amicus Therapeutics, Inc., priority 2005, dated 2018).
Square brackets hold non-standard residues; d marks the D form. d2Nal = N[C@H](Cc1ccc2ccccc2c1)C(=O)O; Nle = CCCC[C@H](N)C(=O)O

Experiments:
[1] = biological target: MC4R as compared to the MC5R (Homo sapiens, UniProt P32245); settings: cited from earlier work
[2] = biological target: MC4R as compared to the MC3R (Homo sapiens, UniProt P32245); settings: cited from earlier work
Chain of MC4R as compared to the MC3R (P32245 whole entry): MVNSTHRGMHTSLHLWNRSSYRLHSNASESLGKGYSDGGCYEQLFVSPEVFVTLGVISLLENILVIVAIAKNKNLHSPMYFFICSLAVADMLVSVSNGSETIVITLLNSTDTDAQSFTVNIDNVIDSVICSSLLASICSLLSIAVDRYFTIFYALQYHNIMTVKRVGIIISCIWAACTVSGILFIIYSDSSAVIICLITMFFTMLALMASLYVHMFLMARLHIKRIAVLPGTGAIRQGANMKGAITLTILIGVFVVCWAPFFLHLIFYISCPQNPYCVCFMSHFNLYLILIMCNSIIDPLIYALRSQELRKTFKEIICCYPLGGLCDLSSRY

hMC4R mutant N62S = biological target: T1, hMC4R mutant N62S (Homo sapiens, UniProt P32245, N62S); experiment: Pharmacological chaperone assay, cell surface expression by FACS, mutant N62S; type: cell-based; settings: 12 h
T1 construct: expressed in transfected cells; host or cells: HEK 293 cells, transient transfection
T1 sequence (P32245 whole entry N62S): as the sequence (P32245 whole entry) above, with N62S counted along it
Procedure: (§1) HEK 293 cells were transiently transfected with wild-type (WT) or the following hMC4R mutants double tagged with 3HA and Venus (Enhanced Yellow Green Fluorescent Protein; EYFP): S58C; N62S; R165W; R165Q, and P299H.
(§2) FACS analysis was performed after fluorescently labeling cells with primary anti-HA.11 antibody (mouse; 1:1000 dilution) and the secondary antibody coupled to Alexa 647 (goat anti-mouse; 1:1000 dilution) dilution. Live cells (propidium iodide negative) were sorted into the following two relevant populations: • P4: Total YFP positive cells (representative of total MC4R expression) • P5: Percent of cells positive for both YFP and Alexa 647 (Alexa and YFP positive cells)/(YFP positive cells+Alexa and YFP positive cells) (representative of cell surface expression)
(§3) Briefly, cells harboring each of the above-referenced MC4R mutants (transfected as described in Example 3) were cultured with each of the antagonist compounds at concentrations of 1.0 μM and 10 μM for 12 h and evaluated for cell surface expression of MC4R using fluorescent activated cell sorting analysis as described above. Cell surface expression levels are compared between treatment and basal conditions. Percent Gain is determined according to the following: [Gain=[(% of surface expression (with treatment)−% of surface expression (w/o treatment))/% of surface expression (w/o treatment)]*100.

hMC4R mutant R165Q = biological target: T2, hMC4R mutant R165Q (Homo sapiens, UniProt P32245, R165Q); experiment: Pharmacological chaperone assay, cell surface expression by FACS, mutant R165Q; type: cell-based; settings: 12 h
T2 construct: expressed in transfected cells; host or cells: HEK 293 cells, transient transfection
T2 sequence (P32245 whole entry R165Q): as the sequence (P32245 whole entry) above, with R165Q counted along it
Procedure: as §1, §2, §3

hMC4R mutant S58C = biological target: T3, hMC4R mutant S58C (Homo sapiens, UniProt P32245, S58C); experiment: Pharmacological chaperone assay, cell surface expression by FACS, mutant S58C; type: cell-based
T3 construct: expressed in transfected cells; host or cells: HEK 293 cells, transient transfection
T3 sequence (P32245 whole entry S58C): as the sequence (P32245 whole entry) above, with S58C counted along it
Procedure: as §1, §2, §3

hMC4R mutant P299H = biological target: T4, hMC4R mutant P299H (Homo sapiens, UniProt P32245, P299H); experiment: Pharmacological chaperone assay, cell surface expression by FACS, mutant P299H; type: cell-based; settings: 12 h
T4 construct: expressed in transfected cells; host or cells: HEK 293 cells, transient transfection
T4 sequence (P32245 whole entry P299H): as the sequence (P32245 whole entry) above, with P299H counted along it
Procedure: as §1, §2, §3

hMC4R mutant R165W = biological target: T5, hMC4R mutant R165W (Homo sapiens, UniProt P32245, R165W); experiment: Pharmacological chaperone assay, cell surface expression by FACS, mutant R165W; type: cell-based
T5 construct: expressed in transfected cells; host or cells: HEK 293 cells, transient transfection
T5 sequence (P32245 whole entry R165W): as the sequence (P32245 whole entry) above, with R165W counted along it
Procedure: as §1, §2, §3

[3] = in vivo; cited from earlier work
[4] = test system: WT and mutant hMC4R (S58C; N62S; R165W; R165Q; P299H) in HEK 293 cells; experiment: Chemical chaperone assay, MC4R cell surface expression by FACS; type: cell-based, human; settings: 1% DMSO, 12 hours
Procedure: as §1
WT and transiently transfected cells were incubated in the presence or absence of 1% DMSO for 12 hours prior to evaluation of MC4R cells surface expression.
as §2

Chain of MC4R as compared to the MC5R (P32245 whole entry): as the sequence (P32245 whole entry) above

Ac-Nle-Gly-Lys-D-Phe-Arg-Trp-Gly-NH(2) (Ac-[Nle]GK[dF]RWG-NH2; SMILES CCCC[C@H](NC(C)=O)C(=O)NCC(=O)N[C@@H](CCCCN)C(=O)N[C@H](Cc1ccccc1)C(=O)N[C@@H](CCCNC(=N)N)C(=O)N[C@@H](Cc1c[nH]c2ccccc12)C(=O)NCC(N)=O)
selectivity for the MC4R as compared to the MC5R [1]: 110 fold
selectivity for the MC4R as compared to the MC3R [2]: 90 fold

CC(CN1CCN(CC(c2ccc(F)cc2)N2CCN(C)CC2)CC1)C(=O)c1ccccc1 (centres unmarked) [Compound 3]
% Gain in cell surface expression (hMC4R mutant N62S; 1 μM): 25%
% Gain in cell surface expression (hMC4R mutant N62S; 10 μM): 343.75%
% Gain in cell surface expression (hMC4R mutant N62S; 10 μM, listed as compound depicted in FIG. 5): more potent
% Gain in cell surface expression (hMC4R mutant R165Q; 1 μM): 300%
% Gain in cell surface expression (hMC4R mutant R165Q; 10 μM): 508%
% Gain in cell surface expression (hMC4R mutant S58C; 1 μM, 12 h): 77.5%
% Gain in cell surface expression (hMC4R mutant S58C; 10 μM, 12 h): 130%
% Gain in cell surface expression (hMC4R mutant P299H; 1 μM): 27.78%
% Gain in cell surface expression (hMC4R mutant P299H; 10 μM): 77.78%
% Gain in cell surface expression (hMC4R mutant P299H; 10 μM, listed as compound shown in FIG. 5): only a small effect
% Gain in cell surface expression (hMC4R mutant R165W; 1 μM, 12 h): 467%
% Gain in cell surface expression (hMC4R mutant R165W; 10 μM, 12 h): 675%

COc1ccc(Cl)cc1Nc1nc(-c2sc(NC(=O)c3ccccc3)nc2C)cs1 [Compound 5]
% Gain in cell surface expression (hMC4R mutant S58C; concentration not given): 31.25%
% Gain in cell surface expression (hMC4R mutant R165W; concentration not given): 28.95%

O=C(N[C@H](Cc1ccc(Cl)cc1)C(=O)N1CCC(Cn2cncn2)(C2CCCCC2)CC1)[C@H]1Cc2ccccc2CN1 [Compound 1, THIQ]
PK %F [3]: %F 14
PK Cl [3]: Cl 84 mLmin/kg
PK Vd [3]: Vd 3.6 L/kg
PK t½ [3]: t½ 0.6 h

C[S+](C)[O-] [DMSO]
enhancement of MC4R cell surface expression [4]: No significant enhancement

Ac-Nle-Gly-Lys-D-Nal(2)-Arg-Trp-Gly-NH(2) (Ac-[Nle]GK[d2Nal]RWG-NH2; SMILES CCCC[C@H](NC(C)=O)C(=O)NCC(=O)N[C@@H](CCCCN)C(=O)N[C@H](Cc1ccc2ccccc2c1)C(=O)N[C@@H](CCCNC(=N)N)C(=O)N[C@@H](Cc1c[nH]c2ccccc12)C(=O)NCC(N)=O)
selectivity for the MC4R as compared to the MC5R [1]: 109 fold
selectivity for the MC4R as compared to the MC3R [2]: 34 fold
